From PMC8772930, “Experimental and Molecular Docking Studies of Cyclic Diphenyl Phosphonates as DNA Gyrase Inhibitors for Fluoroquinolone-Resistant Pathogens” (Antibiotics, 2022)

Target: T1, DNA gyrase (Escherichia coli, UniProt P0AES6)
T1 construct: gene gyrB; with DNA gyrase subunit A (GyrA)
Assay: DNA supercoiling inhibition assay (Inspiralis E. coli gyrase microplate kit, agarose gel)
Assay type: biochemical

NN1C=CCCC1P(=O)(Oc1ccccc1)Oc1ccccc1 (stereo not shown) [2a, cyclic diphenylphosphonate 2a]
IC50: 12 µM
